Experimental findings from ChEMBL document CHEMBL1828525, “Metronidazole acid acyl sulfonamide: a novel class of anticancer agents and potential EGFR tyrosine kinase inhibitors” (Bioorg Med Chem, 2011) are described below.

For orientation: IC50 means the point on the concentration scale where inhibition reaches its midpoint. High values mean weaker potency, low ones greater potency.

Experiment [1] deals with Receptor tyrosine-protein kinase erbB-2 (Homo sapiens, UniProt P04626).
Description: Inhibition of human recombinant (His)6-tagged HER-2 autophosphorylation pre-incubated for 10 mins by DELFIA/Time-resolved fluorimetry
The next experiment has as its system A549. Kind of experiment: Antiproliferative activity against human A549 cells after 48 hrs by MTT assay. It is filed as functional, cell-based. The note with it: A549, 48 h. (In general: Tetrazolium dyes change colour on reduction, which living cells bring about.)
A further experiment deals with B16-F10. The experiment is described as follows: Antiproliferative activity against mouse B16-F10 cells after 48 hrs by MTT assay. It is filed as functional, cell-based. The note with it: B16-F10, 48 h.
The target in experiment [2] is Epidermal growth factor receptor (Homo sapiens, UniProt P00533).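 Further: recombinant His6-tagged EGFR autophosphorylation, read by DELFIA time-resolved fluorimetry after a 10 min preincubation.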
Description: Inhibition of human recombinant (His)6-tagged EGFR autophosphorylation pre-incubated for 10 mins by DELFIA/Time-resolved fluorimetry

SMILES strings stand for the structures. ≈ marks a conversion by molar mass, not a printed value.

Sequence of Epidermal growth factor receptor (P00533 whole entry): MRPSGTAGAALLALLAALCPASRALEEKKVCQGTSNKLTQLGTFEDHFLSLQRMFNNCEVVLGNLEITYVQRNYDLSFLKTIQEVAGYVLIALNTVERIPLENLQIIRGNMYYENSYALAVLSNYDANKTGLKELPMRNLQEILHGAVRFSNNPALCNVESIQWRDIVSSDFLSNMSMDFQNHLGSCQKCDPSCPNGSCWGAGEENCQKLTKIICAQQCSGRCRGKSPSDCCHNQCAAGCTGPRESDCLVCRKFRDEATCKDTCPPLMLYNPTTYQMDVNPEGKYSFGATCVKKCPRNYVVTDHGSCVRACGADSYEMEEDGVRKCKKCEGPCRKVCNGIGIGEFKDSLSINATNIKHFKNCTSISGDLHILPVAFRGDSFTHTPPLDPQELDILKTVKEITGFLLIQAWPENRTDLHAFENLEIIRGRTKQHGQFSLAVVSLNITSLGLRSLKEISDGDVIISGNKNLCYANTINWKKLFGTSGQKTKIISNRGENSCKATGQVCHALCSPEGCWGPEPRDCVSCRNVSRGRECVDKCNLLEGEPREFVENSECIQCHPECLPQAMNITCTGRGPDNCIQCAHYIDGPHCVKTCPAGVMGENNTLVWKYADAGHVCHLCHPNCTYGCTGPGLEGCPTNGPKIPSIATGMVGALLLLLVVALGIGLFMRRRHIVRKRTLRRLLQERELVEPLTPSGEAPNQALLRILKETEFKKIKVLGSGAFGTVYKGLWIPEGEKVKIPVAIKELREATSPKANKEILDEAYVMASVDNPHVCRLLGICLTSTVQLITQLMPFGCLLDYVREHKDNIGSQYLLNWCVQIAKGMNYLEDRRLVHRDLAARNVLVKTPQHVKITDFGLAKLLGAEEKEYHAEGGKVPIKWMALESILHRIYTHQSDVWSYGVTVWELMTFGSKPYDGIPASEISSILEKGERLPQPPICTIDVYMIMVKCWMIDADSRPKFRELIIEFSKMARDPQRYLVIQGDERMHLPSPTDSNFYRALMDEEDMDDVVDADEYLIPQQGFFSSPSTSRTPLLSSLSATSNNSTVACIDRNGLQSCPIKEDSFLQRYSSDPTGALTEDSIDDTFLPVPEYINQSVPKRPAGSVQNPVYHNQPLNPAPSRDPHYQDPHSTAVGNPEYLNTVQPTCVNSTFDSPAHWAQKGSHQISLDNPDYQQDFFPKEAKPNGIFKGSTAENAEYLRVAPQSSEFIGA
Sequence of Receptor tyrosine-protein kinase erbB-2 (P04626 whole entry): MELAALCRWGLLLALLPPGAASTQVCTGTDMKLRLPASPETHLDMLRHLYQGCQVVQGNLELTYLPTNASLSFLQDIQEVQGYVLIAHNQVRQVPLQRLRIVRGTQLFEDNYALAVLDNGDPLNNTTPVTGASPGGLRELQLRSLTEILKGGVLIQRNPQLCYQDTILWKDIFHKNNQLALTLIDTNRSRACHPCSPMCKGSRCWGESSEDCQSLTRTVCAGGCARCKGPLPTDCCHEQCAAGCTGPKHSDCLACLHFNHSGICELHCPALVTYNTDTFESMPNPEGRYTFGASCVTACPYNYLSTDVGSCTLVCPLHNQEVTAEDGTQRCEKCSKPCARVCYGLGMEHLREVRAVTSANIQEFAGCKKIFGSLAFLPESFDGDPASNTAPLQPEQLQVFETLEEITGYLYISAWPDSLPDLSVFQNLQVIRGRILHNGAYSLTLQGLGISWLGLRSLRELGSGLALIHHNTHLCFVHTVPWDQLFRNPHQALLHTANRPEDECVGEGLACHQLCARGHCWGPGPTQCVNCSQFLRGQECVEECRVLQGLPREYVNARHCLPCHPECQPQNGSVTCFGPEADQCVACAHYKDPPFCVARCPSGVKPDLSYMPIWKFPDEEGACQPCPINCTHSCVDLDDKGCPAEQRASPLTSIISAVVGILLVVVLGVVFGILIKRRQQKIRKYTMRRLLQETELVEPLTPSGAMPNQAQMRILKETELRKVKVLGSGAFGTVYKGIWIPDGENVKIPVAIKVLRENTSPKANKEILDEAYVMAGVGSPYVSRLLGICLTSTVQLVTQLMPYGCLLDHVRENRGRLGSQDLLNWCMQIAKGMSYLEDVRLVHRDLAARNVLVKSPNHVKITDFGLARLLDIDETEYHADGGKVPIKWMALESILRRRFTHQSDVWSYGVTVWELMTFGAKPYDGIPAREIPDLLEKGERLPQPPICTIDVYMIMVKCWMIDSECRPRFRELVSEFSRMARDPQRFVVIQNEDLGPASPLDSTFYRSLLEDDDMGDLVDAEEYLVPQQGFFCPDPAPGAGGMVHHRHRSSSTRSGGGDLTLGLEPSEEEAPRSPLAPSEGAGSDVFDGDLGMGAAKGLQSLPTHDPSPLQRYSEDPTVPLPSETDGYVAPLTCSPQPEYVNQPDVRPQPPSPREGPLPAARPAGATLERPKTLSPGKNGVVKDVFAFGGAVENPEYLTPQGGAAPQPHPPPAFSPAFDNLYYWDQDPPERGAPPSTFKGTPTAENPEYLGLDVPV

`Cc1ncc([N+](=O)[O-])n1CC(=O)NS(=O)(=O)c1ccccc1` showed an IC50 in experiment [1] of 4.21 µM.
Regarding `Cc1ccc(S(=O)(=O)NC(=O)Cn2c([N+](=O)[O-])cnc2C)cc1`, the IC50 in the experiment on A549 is 4.38 µg/mL (≈ 12.9 µM); in experiment [1], 4.76 µM; in the experiment on B16-F10 it was 3.55 µg/mL (≈ 10.5 µM); in experiment [2] it was 3.43 µM.
On the same counts, the results for `Cc1ncc([N+](=O)[O-])n1CC(=O)NS(=O)(=O)c1ccc(F)cc1` are 1.26 µg/mL (≈ 3.68 µM), 1.53 µM, 0.35 µg/mL (≈ 1.02 µM) and 0.39 µM.
On the same counts, the results for `Cc1ncc([N+](=O)[O-])n1CC(=O)NS(=O)(=O)c1ccc(Cl)cc1` are 2.47 µg/mL (≈ 6.88 µM), 3.41 µM, 0.92 µg/mL (≈ 2.56 µM) and 1.51 µM.
As to `Cc1ncc([N+](=O)[O-])n1CC(=O)NS(=O)(=O)c1ccc(Br)cc1`, the IC50 was found to be 3.03 µg/mL (≈ 7.51 µM) with A549, 3.59 µM in experiment [1], 2.37 µg/mL (≈ 5.88 µM) with B16-F10 and 2.17 µM in experiment [2].
For `O=C(Cc1ccc(F)cc1)NS(=O)(=O)c1ccccc1` the same measures were 10.1 µg/mL (≈ 34.5 µM), 8.41 µM, 9.07 µg/mL (≈ 30.9 µM) and 6.74 µM.
As for `Cc1ccc(S(=O)(=O)NC(=O)Cc2ccc(F)cc2)cc1`, the IC50 amounted to 12 µg/mL (≈ 39.2 µM) with A549, 10.5 µM in experiment [1], 9.94 µg/mL (≈ 32.3 µM) in the experiment on B16-F10 and 8.28 µM in experiment [2].
On the same counts, the results for `O=C(Cc1ccc(F)cc1)NS(=O)(=O)c1ccc(F)cc1` are 5.64 µg/mL (≈ 18.1 µM), 7.02 µM, 4.23 µg/mL (≈ 13.6 µM) and 5.17 µM.
On the same counts, the results for `O=C(Cc1ccc(F)cc1)NS(=O)(=O)c1ccc(Cl)cc1` are 6.28 µg/mL (≈ 19.2 µM), 7.56 µM, 6.36 µg/mL (≈ 19.4 µM) and 5.93 µM.
On the same counts, the results for `O=C(Cc1ccc(F)cc1)NS(=O)(=O)c1ccc(Br)cc1` are 7.94 µg/mL (≈ 21.3 µM), 8.18 µM, 8.2 µg/mL (≈ 22 µM) and 6.41 µM.
For the compound `O=C(Cc1ccc(Cl)cc1)NS(=O)(=O)c1ccccc1`, the IC50 came out at 13.1 µM in experiment [1] and 11.9 µM in experiment [2].
As to `Cc1ccc(S(=O)(=O)NC(=O)Cc2ccc(Cl)cc2)cc1`, the IC50 in experiment [1] is 15.6 µM; in experiment [2] it was 13.7 µM.
As for `O=C(Cc1ccc(Cl)cc1)NS(=O)(=O)c1ccc(F)cc1`, the IC50 amounted to 11.1 µM in experiment [1] and 9.59 µM in experiment [2].
For `O=C(Cc1ccc(Cl)cc1)NS(=O)(=O)c1ccc(Cl)cc1` the same measures were 13.3 µM and 10.3 µM.
For `O=C(Cc1ccc(Cl)cc1)NS(=O)(=O)c1ccc(Br)cc1`, the results for the IC50 in experiment [1] and in experiment [2] were 13.6 µM and 11.3 µM, respectively.
In the case of `O=C(Cc1ccc(Br)cc1)NS(=O)(=O)c1ccccc1`, the IC50 came out at 19 µM in experiment [1] and 17.8 µM in experiment [2].
As to `Cc1ccc(S(=O)(=O)NC(=O)Cc2ccc(Br)cc2)cc1`, the IC50 in experiment [1] amounted to 20.3 µM; in experiment [2] it was 18.4 µM.
For the compound `O=C(Cc1ccc(Br)cc1)NS(=O)(=O)c1ccc(F)cc1`, the values for the IC50 in experiment [1] and in experiment [2] were 16.3 µM and 14.5 µM, respectively.
For `O=C(Cc1ccc(Br)cc1)NS(=O)(=O)c1ccc(Cl)cc1` the same measures were 18.9 µM and 15.9 µM.
As for `O=C(Cc1ccc(Br)cc1)NS(=O)(=O)c1ccc(Br)cc1`, 19.8 µM corresponded to half-maximal inhibition in experiment [1] (IC50).
Regarding `COc1ccc(CC(=O)NS(=O)(=O)c2ccccc2)cc1`, the IC50 in experiment [1] turned out to be 29.1 µM; in experiment [2] it was 26.2 µM.
For `COc1ccc(CC(=O)NS(=O)(=O)c2ccc(C)cc2)cc1`, the IC50 in experiment [1] is greater than 50 µM; in experiment [2] it was 38.5 µM.
`COc1ccc(CC(=O)NS(=O)(=O)c2ccc(F)cc2)cc1`: the figures for the IC50 in experiment [1] and in experiment [2] were 23.4 µM and 21.8 µM, respectively.
For `COc1ccc(CC(=O)NS(=O)(=O)c2ccc(Cl)cc2)cc1`, the IC50 in experiment [1] came out at 37.9 µM; in experiment [2], 32.9 µM.
As for `COc1ccc(CC(=O)NS(=O)(=O)c2ccc(Br)cc2)cc1`, the concentration for half-maximal inhibition (IC50) in experiment [1] worked out at 25 µM; in experiment [2] it was 24.2 µM.
For `O=C(Cc1cccc(Br)c1)NS(=O)(=O)c1ccccc1` the same measures were 26.3 µM and 24.7 µM.
Turning to `Cc1ccc(S(=O)(=O)NC(=O)Cc2cccc(Br)c2)cc1`, the figures for the half-inhibitory concentration (IC50) in experiment [1] and in experiment [2] were 27.9 µM and 26.2 µM, respectively.
With `O=C(Cc1cccc(Br)c1)NS(=O)(=O)c1ccc(F)cc1`, the results for the IC50 in experiment [1] and in experiment [2] were 20.4 µM and 18.7 µM, respectively.
Consider `O=C(Cc1cccc(Br)c1)NS(=O)(=O)c1ccc(Cl)cc1`, for which the results for the IC50 in experiment [1] and in experiment [2] were 23.5 µM and 21.3 µM, respectively.
Consider `O=C(Cc1cccc(Br)c1)NS(=O)(=O)c1ccc(Br)cc1`, for which the IC50 is 27.4 µM in experiment [1] and 24.3 µM in experiment [2].
